Test results: the supplement of paper PMC7108870

Key:
[1] = test system: HEK293sieSTAT3(Y640F); assay: drug sensitivity score (DSS), cytotoxicity CellTox Green (DSS (dimensionless)); higher = more cytotoxic; extreme values may be limits of the assay; conditions: 72 h; STAT3 variant: Y640F (constitutively active)
Method in brief: (§1)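 Each value is one representative of two experiments in which HEK293 cells overexpressing wild-type or mutant STAT3 with a STAT3-dependent luciferase reporter were exposed to compounds at 5 concentrations (10-fold dilutions) for 72 hours at 37°C and 5% CO2. Readouts were CellTox Green fluorescence and then CellTiter-Glo luminescence, normalised to negative and positive control wells. The drug sensitivity score was based on the dose-response curve area and computed in Breeze.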

[2] = test system: HEK293sieSTAT3(wt); assay: as above; conditions: 72 h; STAT3 variant: wild type
Method in brief: as §1

[3] = test system: HEK293sieSTAT3(Y640F); assay: drug sensitivity score (DSS), viability CellTiter-Glo (DSS (dimensionless)); higher = more growth inhibition; extreme values may be limits of the assay; conditions: 72 h; STAT3 variant: Y640F (constitutively active)
Method in brief: as §1

[4] = test system: HEK293sieSTAT3(wt); assay: as above; conditions: 72 h; STAT3 variant: wild type
Method in brief: as §1

| SMILES | drug sensitivity score [1] | drug sensitivity score [2] | drug sensitivity score [3] | drug sensitivity score [4] |
| --- | --- | --- | --- | --- |
| CN(Cc1cnc2nc(N)nc(N)c2n1)c1ccc(C(=O)N[C@@H](CCC(=O)O)C(=O)O)cc1 [Methotrexate] (top concentration tested 5000 nM) | 0 | 1.17 | 26.1 | 17 |
| Nc1nc(N)c2nc(-c3cccc(O)c3)c(-c3cccc(O)c3)nc2n1 [TG100-115] (top concentration tested 10000 nM) | 0 | 0 | 0.15 | 0 |
| COCC(=O)NC/C=C/c1ccc2ncnc(Nc3ccc(Oc4ccc(C)nc4)c(C)c3)c2c1 (top concentration tested 10000 nM) | 0 | 2.66 | 1.25 | 3.61 |
| Cc1nc(NC(=O)N2CCC[C@H]2C(N)=O)sc1-c1ccnc(C(C)(C)C(F)(F)F)c1 [Alpelisib] (top concentration tested 2500 nM) | 0 | 0 | 0.49 | 3.18 |
| CNC(=O)c1nn(C)c2c1C(C)(C)Cc1cnc(Nc3ccc(N4CCN(C)CC4)cc3)nc1-2 [Milciclib] (top concentration tested 10000 nM) | 1 | 7.5 | 11.2 | 15 |
| CC(=O)Nc1ccc(C(=O)Nc2ccccc2N)cc1 [Tacedinaline] (top concentration tested 1000 nM) | 0 | 0 | 4.27 | 2.27 |
| CCN(CC)CCCC(C)Nc1c2ccc(Cl)cc2nc2ccc(OC)cc12 (stereo not drawn) [Mepacrine] (top concentration tested 50000 nM) | 18.1 | 19.7 | 21.1 | 21.4 |
| C[C@H]1Oc2cc(cnc2N)-c2c(nn(C)c2C#N)CN(C)C(=O)c2ccc(F)cc21 (top concentration tested 1000 nM) | 0 | 0 | 5.03 | 1.84 |
| CC(C)(O)CC(=O)NCCn1ccc2ncnc(Nc3ccc(Oc4cccc(C(F)(F)F)c4)c(Cl)c3)c21 [TAK-285] (top concentration tested 2500 nM) | 0 | 0 | 0 | 0 |
| COc1cc(NS(C)(=O)=O)ccc1Nc1c2ccccc2nc2ccccc12 [Amsacrine] (top concentration tested 10000 nM) | 6.68 | 11.1 | 25.2 | 26.9 |
| Cc1ncc(-c2ccnc(Nc3ccc(S(C)(=O)=O)cc3)n2)n1C(C)C [AZD-5438] (top concentration tested 10000 nM) | 5.66 | 13.8 | 9.27 | 15.4 |
| Clc1ccc(Nc2nnc(Cc3ccncc3)c3ccccc23)cc1 [Vatalanib] (top concentration tested 10000 nM) | 0 | 0 | 0.9 | 1.89 |
| Nc1ncnc2c1c(COc1cccc(Cl)c1)nn2C1CCOCC1 (top concentration tested 10000 nM) | 0 | 0 | 0 | 0.14 |
| CCOc1cc2ncc(C#N)c(Nc3ccc(OCc4ccccn4)c(Cl)c3)c2cc1NC(=O)/C=C/CN(C)C [Neratinib] (top concentration tested 1000 nM) | 0 | 0 | 3.35 | 1.99 |
| CNC(=O)c1ccccc1Nc1nc(Nc2ccc3c(c2OC)CCC[C@H](N2CCN(CCO)CC2)C3)ncc1Cl (top concentration tested 5000 nM) | 0 | 6.35 | 7.82 | 9.3 |
| CCN(CC)CCCC(C)Nc1ccnc2cc(Cl)ccc12 (stereo not drawn) [Chloroquine] (top concentration tested 100000 nM) | 8.17 | 15.8 | 11 | 13 |
| CN(C)c1nc(N(C)C)nc(N(C)C)n1 [Altretamine] (top concentration tested 10000 nM) | 0 | 0 | 0 | 0 |
| O=C(O)c1ccc(O)c2ncccc12 [IOX-1] (top concentration tested 100000 nM) | 0 | 0 | 1.18 | 2.26 |
| O=C(Nc1cccc(NC(=O)c2cccc(O)c2O)c1)c1cccc(O)c1O [MST-312] (top concentration tested 10000 nM) | 1.09 | 6.46 | 6.74 | 13.2 |

| SMILES | drug sensitivity score [1] | drug sensitivity score [2] | drug sensitivity score [3] | drug sensitivity score [4] |
| --- | --- | --- | --- | --- |
| FC(F)c1nc2ccccc2n1-c1nc(N2CCOCC2)nc(N2CCOCC2)n1 [ZSTK474] (top concentration tested 10000 nM) | 0 | 6.5 | 12.8 | 16.6 |
| O=c1sn(-c2cccc3ccccc23)c(=O)n1Cc1ccccc1 [Tideglusib] (top concentration tested 3000 nM) | 0 | 0 | 2.47 | 0.7 |
| OCCn1cc(-c2cnc3nnn(Cc4ccc5ncccc5c4)c3n2)cn1 (top concentration tested 2500 nM) | 0 | 0.12 | 1.78 | 0 |
| Cc1csc(-c2nnc(Nc3ccc(Oc4ncccc4-c4ccnc(N)n4)cc3)c3ccccc23)c1 [AMG-900] (top concentration tested 1000 nM) | 0 | 0 | 4.35 | 3.01 |
| O=C(Nc1ccc(OC(F)(F)F)cc1)c1sccc1NCc1ccnc2ccccc12 [OSI-930] (top concentration tested 2500 nM) | 0 | 0 | 0.46 | 1.31 |
| Nc1ccn([C@@H]2O[C@H](CO)[C@@H](O)C2(F)F)c(=O)n1 [Gemcitabine] (top concentration tested 1000 nM) | 2.77 | 4.58 | 14.6 | 19.5 |
| O=C(O)C(=O)O.[NH-][C@@H]1CCCC[C@H]1[NH-].[Pt+2] [Oxaliplatin] (top concentration tested 100000 nM) | 5.26 | 12 | 16.9 | 19.3 |
| CCn1c(=O)c(-c2cc[nH]n2)cc2c(C)nc(N)nc21 [Voxtalisib] (top concentration tested 10000 nM) | 0 | 3.54 | 8.35 | 9.9 |
| CC(C)c1cc(-c2n[nH]c(=O)n2-c2ccc3c(ccn3C)c2)c(O)cc1O [Ganetespib] (top concentration tested 1000 nM) | 6.77 | 23.1 | 20.6 | 27.4 |
| CN1CCc2c(c3ccccc3n2Cc2ccc(C(=O)NO)cc2)C1 [Tubastatin A] (top concentration tested 10000 nM) | 5.37 | 7.38 | 8.41 | 8.98 |
| CN1CCN(c2cc(C(=O)Nc3ccc4c(c3)-c3c(c(C(N)=O)nn3-c3ccc(F)cc3)CC4)c(Cl)cn2)CC1 [PHA 408] (top concentration tested 10000 nM) | 5.61 | 8.63 | 9.12 | 8.88 |
| O=C(O)c1ccc(Nc2ncc3c(n2)-c2ccc(Cl)cc2C(c2c(F)cccc2F)=NC3)cc1 [MLN-8054] (top concentration tested 10000 nM) | 0 | 2.73 | 6.2 | 11 |
| CS(=O)(=O)c1ccc(C2=C(c3ccccc3)C(=O)OC2)cc1 [Rofecoxib] (top concentration tested 10000 nM) | 0 | 0 | 0 | 0 |
| Cc1cnc(NC(=O)Nc2cc(Br)c(C)cc2OC[C@@H]2CNCCO2)cn1 [Rabusertib] (top concentration tested 1000 nM) | 0.03 | 1.61 | 5.38 | 5.03 |
| COc1cc2c(N3CCN(C(=O)Nc4ccc(OC(C)C)cc4)CC3)ncnc2cc1OCCCN1CCCCC1 [Tandutinib] (top concentration tested 1000 nM) | 0 | 0 | 0.33 | 1.99 |
| CC(C)c1c(C(=O)Nc2ccccc2)c(-c2ccccc2)c(-c2ccc(F)cc2)n1CC[C@@H](O)C[C@@H](O)CC(=O)O [Atorvastatin] (top concentration tested 10000 nM) | 9.06 | 6.93 | 6.61 | 8.29 |
| COc1cc(N2CCC(N3CCN(C)CC3)CC2)ccc1Nc1ncc(Cl)c(Nc2ccccc2P(C)(C)=O)n1 [Brigatinib] (top concentration tested 2500 nM) | 0.69 | 1.71 | 7.58 | 8.02 |
| C#Cc1cccc(Nc2ncnc3cc4c(cc23)OCCOCCOCCO4)c1 [Icotinib] (top concentration tested 10000 nM) | 0 | 0.13 | 0.77 | 1.11 |
